Structures are written as SMILES.

The test system of the assay is HDAC (Hela Nuclear Extract). Kind of assay: In vitro HDAC fluorescent activity assay (Biomol kit, Fluor de Lys substrate) with Hela Nuclear Extract. It is filed as biochemical. The note with it: compounds reduced with 30 mM DTT prior to analysis; diluted Hela Nuclear Extract; 37° C. for 1 hour; mean of duplicate samples. As for the experimental part:
In vitro HDAC assays were performed using a HDAC fluorescent activity assay kit (Biomol, UK) according to the manufacturer's instructions. Compounds were reduced prior to analysis; 1 mM compound was reduced with 30 mM DTT in DMSO overnight at room temperature, protected from light. Reactions were then set up in a 96-well plate. For each reaction 10 μl compound (5× required concentration in assay buffer) was mixed with […] diluted Hela Nuclear Extract (30-fold in assay buffer). Serial dilutions were set up for each compound. Reactions containing Hela extract only and assay buffer only were also set up. 25 μl diluted Fluor de Lys™ substrate (100-fold in assay buffer) was added to each reaction, which were then incubated at 37° C. for 1 hour. The reaction was stopped by addition of 50 μl Fluor de Lys™ Developer (20-fold dilution in assay buffer, plus TSA diluted 100-fold). The reactions were then incubated at room temperature for 10 minutes before fluorescence was measured using a CytoFluor II Fluorescence Multiwell Plate Reader and CytoFluor II software with filters set at […] for excitation and […] for emission. Inhibition of in vitro HDAC activity was determined for mean values of duplicate samples as percentages relative to HeLa extract only reactions. IC50 values were calculated using GraphPad Prism software.

On to `CC(=O)SCC/C=C/[C@@H]1CC(=O)N[C@H](C)C(=O)N[C@H](Cc2ccccc2)C(=O)N[C@H](C(C)C)C(=O)NCC(=O)O1` [Compound 17, Thioacetic acid S-[(E)-4-((6R,9R,12R,16S)-9-benzyl-6-isopropyl-12-methyl-2,5,8,11,14-pentaoxo-1-oxa-4,7,10,13-tetraaza-cyclohexadec-16-yl)-but-3-enyl]ester], for which the IC50 – broadly, the concentration at which inhibition is half-maximal – stood at 126 ± 5.3 nM.

Consider `CC(C)[C@H]1NC(=O)[C@@H](Cc2ccccc2)NC(=O)[C@@H](C)NC(=O)C[C@@H](/C=C/CCS)OC(=O)CNC1=O` [Compound 16, (6R,9R,12R,16S)-9-Benzyl-6-isopropyl-16-((E)-4-mercapto-but-1-enyl)-12-methyl-1-oxa-4,7,10,13-tetraaza-cyclohexadecane-2,5,8,11,14-pentaone], for which the midpoint of inhibition, the IC50, lay at 47 ± 9.9 nM.

The values are drawn from patent US8865655B2, “Depsipeptides and their therapeutic use” (Karus Therapeutics Limited, priority 2006, dated 2014).
